Measurements as given in EP0173527A2, “Insulin-selective somatostatin analogs” (THE SALK INSTITUTE FOR BIOLOGICAL STUDIES, priority 1984, dated 1986).
“Also recorded” adds a separate entry of the source. Positions of bridges follow the written chain, without caps; N, C: chain ends.

What was measured:
[1] = system: cells of rat pituitary glands; test: in vitro radioimmunoassay of growth hormone release from cultured rat pituitary cells, side-by-side comparison with somatostatin-14; assay type: cell-based; details: for biological activity / potency: comparative in vitro testing, compared with aSS-28
Protocol: To determine the effectiveness of the peptides to inhibit the release of […], in vitro radioimmunoassays are carried out using aSS-28, [Lys^23]-aSS-28 and aSS(15-28) in side-by-side comparison with equimolar concentrations of somotostatin-14 having a known effectiveness to inhibit the release of growth hormone induced by the application of isobutyl methyl xanthine to pituitary cells. Cultures are used which include cells of rat pituitary glands removed some four to five days previously in a system that minimizes enzymatic degradation, generally following the procedure set forth in Vale et al., Methods in Enzymology, Hormones and Cyclic Nucleotides (1975) Vol. 37, p. 82. Both cultures of a defined standard medium and cultures which are considered optimal for the secretion of growth hormone, as a result of having additions of either 2% or 10% of serum from a foetal calf, are used for the comparative testing.

[2] = synthetic SS-28; Pradayrol et al., FEBS Letters 109, 1980; cited from earlier work
[3] = system: secretion of glucagon and insulin; test: in vivo inhibition of insulin (and glucagon) secretion, potency relative to somatostatin-14; design: species or system rats; details: basal and stimulated insulin secretion in mammals, including humans and dogs; compared with somatostatin-14 and somatostatin-28
Protocol: In vivo experiments are carried out with aSS-28, using the procedure described in Brown et al., Metabolism (1976) Vol. 25, pp. 1501-1503, to determine the potency, relative to somatostatin-14, to inhibit the secretion of glucagon and insulin stimulated by the administration of arginine to groups of rats.

H-Ala-Gly-Cys-Lys-Asn-Phe-Tyr-Trp-Hyl-Gly-Phe-Thr-Ser-Cys-OH [aSS(15-28)]
biological activity / potency [1]: similarly biologically active although having somewhat lower potencies

H-Ser-Ala-Asn-Ser-Asn-Pro-Ala-Met-Ala-Pro-Arg-Glu-Arg-Lys-Ala-Gly-Cys-Lys-Asn-Phe-Phe-Trp-Lys-Thr-Phe-Thr-Ser-Cys-OH [SS-28]
potency when administered in vivo [2]: increased potency

H-Ser-Val-Asp-Ser-Thr-Asn-Asn-Leu-Pro-Pro-Arg-Glu-Arg-Lys-Ala-Gly-Cys-Lys- Asn-Phe-Tyr-Trp-Lys-Gly-Phe-Thr-Ser-Cys-OH (H-SVDSTNNLPPRERKAGCKNFYWKGFTSC-OH; disulfide 17-28 (inferred); ends not checked) [[Lys 23]-aSS-28]
biological activity / potency [1]: similarly biologically active although having somewhat lower potencies

H-Ser-Val-Asp-Ser-Thr-Asn-Asn-Leu-Pro-Pro-Arg-Glu-Arg-Lys-Ala-Gly-Cys-Lys-Asn-Phe-Tyr-Trp-Hyl-Gly-Phe-Thr-Ser-Cys-OH [aSS-28]
insulin-selectivity ([1]; inferred from GH inhibition compared with SS-14): likely insulin-selective; also recorded: extreme insulin-selectivity
inhibition of GH ([1]; release of growth hormone induced by isobutyl methyl xanthine, compared with equimolar SS-14): substantially less than SS-14
potency to inhibit insulin secretion [3]: increased potency; also recorded: more potent than either somatostatin-14 or somatostatin-28
